Results taken from PubChem BioAssay (NCI).
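96-well plates; 48 h exposure; 5 concentrations. Endpoints by linear interpolation between flanking doses. Not reached: highest tested concentration assigned. The concentration for 50% growth inhibition is given as GI50. Definition used: TGI = concentration required for complete inhibition of growth.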

Experiments:
Assay in all cases: DTP human tumour cell line panel, 48 h
NCI-H226 lung = test system: NCI-H226 lung
SF-295 CNS = test system: SF-295 CNS
K-562 leukemia = test system: K-562 leukemia
HT29 colon = test system: HT29 colon
LOX IMVI melanoma = test system: LOX IMVI melanoma
NCI-H23 lung = test system: NCI-H23 lung
EKVX NSCLC = test system: EKVX NSCLC
BT-549 breast = test system: BT-549 breast
NCI/ADR-RES ovarian = test system: NCI/ADR-RES ovarian
MCF7 breast = test system: MCF7 breast
ACHN renal = test system: ACHN renal
HCT-15 colon = test system: HCT-15 colon
A498 renal = test system: A498 renal
PC-3 prostate = test system: PC-3 prostate
HOP-62 NSCLC = test system: HOP-62 NSCLC
UO-31 renal = test system: UO-31 renal
SNB-19 CNS = test system: SNB-19 CNS
KM12 colon = test system: KM12 colon
HOP-92 NSCLC = test system: HOP-92 NSCLC
SW-620 colon = test system: SW-620 colon
UACC-62 melanoma = test system: UACC-62 melanoma
UACC-257 melanoma = test system: UACC-257 melanoma
SK-MEL-2 melanoma = test system: SK-MEL-2 melanoma
SF-539 CNS = test system: SF-539 CNS
OVCAR-3 ovarian = test system: OVCAR-3 ovarian
HL-60(TB) leukemia = test system: HL-60(TB) leukemia
SR leukemia = test system: SR leukemia
CAKI-1 renal = test system: CAKI-1 renal
MDA-MB-435 = test system: MDA-MB-435
786-0 renal = test system: 786-0 renal
MDA-MB-468 breast = test system: MDA-MB-468 breast
A549 NSCLC = test system: A549 NSCLC
SF-268 CNS = test system: SF-268 CNS
HS 578T breast = test system: HS 578T breast
HCT-116 colon = test system: HCT-116 colon
MOLT-4 leukemia = test system: MOLT-4 leukemia
RPMI-8226 leukemia = test system: RPMI-8226 leukemia
NCI-H460 lung = test system: NCI-H460 lung
MALME-3M melanoma = test system: MALME-3M melanoma
U251 CNS = test system: U251 CNS
OVCAR-5 ovarian = test system: OVCAR-5 ovarian
SN12C renal = test system: SN12C renal
TK-10 renal = test system: TK-10 renal
SNB-75 CNS = test system: SNB-75 CNS
SK-MEL-5 melanoma = test system: SK-MEL-5 melanoma
OVCAR-4 ovarian = test system: OVCAR-4 ovarian
IGROV1 ovarian = test system: IGROV1 ovarian
OVCAR-8 ovarian = test system: OVCAR-8 ovarian
COLO 205 colon = test system: COLO 205 colon
RXF 393 renal = test system: RXF 393 renal
M14 melanoma = test system: M14 melanoma
T-47D breast = test system: T-47D breast
NCI-H522 lung = test system: NCI-H522 lung
SK-OV-3 ovarian = test system: SK-OV-3 ovarian
SK-MEL-28 melanoma = test system: SK-MEL-28 melanoma
HCC-2998 colon = test system: HCC-2998 colon
MDA-MB-231 breast = test system: MDA-MB-231 breast
CCRF-CEM leukemia = test system: CCRF-CEM leukemia
DU-145 prostate = test system: DU-145 prostate

**Q.** Which results are given for `CC1(C)CC[C@]2(C(=O)O)CC[C@]3(C)C(=CCC4[C@@]5(C)C[C@@H](O)[C@@H]6OC(c7ccccc7F)OC[C@@]6(C)C5CC[C@]43C)C2C1` (stereo partly drawn)?
**A.** GI50 (NCI-H226 lung): 3.3 µM; TGI (NCI-H226 lung): 15.1 µM; GI50 (SF-295 CNS): 2.72 µM; TGI (SF-295 CNS): 13 µM; GI50 (K-562 leukemia): 2.66 µM; TGI (K-562 leukemia): 84.2 µM; GI50 (HT29 colon): 3.6 µM; TGI (HT29 colon): 17.2 µM; GI50 (LOX IMVI melanoma): 3.49 µM; TGI (LOX IMVI melanoma): 14.2 µM; GI50 (NCI-H23 lung): 3.97 µM; TGI (NCI-H23 lung): 15.7 µM; GI50 (EKVX NSCLC): 3.16 µM; TGI (EKVX NSCLC): 14.5 µM; GI50 (BT-549 breast): 2.84 µM; TGI (BT-549 breast): 11.3 µM; GI50 (NCI/ADR-RES ovarian): 3.11 µM; TGI (NCI/ADR-RES ovarian): 14.5 µM; GI50 (MCF7 breast): 3.42 µM; TGI (MCF7 breast): 14.6 µM; GI50 (ACHN renal): 2.83 µM; TGI (ACHN renal): 12.3 µM; GI50 (HCT-15 colon): 2.14 µM; TGI (HCT-15 colon): 10.9 µM; GI50 (A498 renal): 7.09 µM; TGI (A498 renal): 20.2 µM; GI50 (PC-3 prostate): 3.21 µM; TGI (PC-3 prostate): 18.3 µM; GI50 (HOP-62 NSCLC): 3.61 µM; TGI (HOP-62 NSCLC): 15 µM; GI50 (UO-31 renal): 2.53 µM; TGI (UO-31 renal): 13.5 µM; GI50 (SNB-19 CNS): 3.75 µM; TGI (SNB-19 CNS): 15.8 µM; GI50 (KM12 colon): 3.7 µM; TGI (KM12 colon): 15.1 µM; GI50 (HOP-92 NSCLC): 2.65 µM; TGI (HOP-92 NSCLC): 11.9 µM; GI50 (SW-620 colon): 4.34 µM; TGI (SW-620 colon): 16.4 µM; GI50 (UACC-62 melanoma): 5.02 µM; TGI (UACC-62 melanoma): 18 µM; GI50 (UACC-257 melanoma): 4.68 µM; TGI (UACC-257 melanoma): 18.2 µM; GI50 (SK-MEL-2 melanoma): 4.83 µM; TGI (SK-MEL-2 melanoma): 20 µM; GI50 (SF-539 CNS): 3.65 µM; TGI (SF-539 CNS): 13 µM; GI50 (OVCAR-3 ovarian): 3.23 µM; TGI (OVCAR-3 ovarian): 13.1 µM; GI50 (HL-60(TB) leukemia): 2.67 µM; TGI (HL-60(TB) leukemia): 9.82 µM; GI50 (SR leukemia): 3.29 µM; TGI (SR leukemia): 21.9 µM; GI50 (CAKI-1 renal): 3.8 µM; TGI (CAKI-1 renal): 14.4 µM; GI50 (MDA-MB-435): 5.58 µM; TGI (MDA-MB-435): 18.6 µM; GI50 (786-0 renal): 4.4 µM; TGI (786-0 renal): 16 µM; GI50 (MDA-MB-468 breast): 3.37 µM; TGI (MDA-MB-468 breast): 14 µM; GI50 (A549 NSCLC): 1.62 µM; TGI (A549 NSCLC): 12.3 µM; GI50 (SF-268 CNS): 5.04 µM; TGI (SF-268 CNS): 20.7 µM; GI50 (HS 578T breast): 3.5 µM; TGI (HS 578T breast): 16.2 µM; GI50 (HCT-116 colon): 2.75 µM; TGI (HCT-116 colon): 11.7 µM; GI50 (MOLT-4 leukemia): 2.09 µM; TGI (MOLT-4 leukemia): 12 µM; GI50 (RPMI-8226 leukemia): 2.09 µM; TGI (RPMI-8226 leukemia): 16.1 µM; GI50 (NCI-H460 lung): 3.67 µM; TGI (NCI-H460 lung): 14.1 µM; GI50 (MALME-3M melanoma): 5.08 µM; TGI (MALME-3M melanoma): 17.9 µM; GI50 (U251 CNS): 2.63 µM; TGI (U251 CNS): 12.9 µM; GI50 (OVCAR-5 ovarian): 9.04 µM; TGI (OVCAR-5 ovarian): 21.1 µM; GI50 (SN12C renal): 3.57 µM; TGI (SN12C renal): 15.7 µM; GI50 (TK-10 renal): 6.03 µM; TGI (TK-10 renal): 19.8 µM; GI50 (SNB-75 CNS): 2.77 µM; TGI (SNB-75 CNS): 15 µM; GI50 (SK-MEL-5 melanoma): 3.39 µM; TGI (SK-MEL-5 melanoma): 12.7 µM; GI50 (OVCAR-4 ovarian): 5.19 µM; TGI (OVCAR-4 ovarian): 19.4 µM; GI50 (IGROV1 ovarian): 5.54 µM; TGI (IGROV1 ovarian): 18.1 µM; GI50 (OVCAR-8 ovarian): 3.41 µM; TGI (OVCAR-8 ovarian): 15.6 µM; GI50 (COLO 205 colon): 2.73 µM; TGI (COLO 205 colon): 8.52 µM; GI50 (RXF 393 renal): 2.54 µM; TGI (RXF 393 renal): 7.92 µM; GI50 (M14 melanoma): 6.64 µM; TGI (M14 melanoma): 20.6 µM; GI50 (T-47D breast): 6.64 µM; TGI (T-47D breast): 24.7 µM; GI50 (NCI-H522 lung): 3.79 µM; TGI (NCI-H522 lung): 16.8 µM; GI50 (SK-OV-3 ovarian): 4.51 µM; TGI (SK-OV-3 ovarian): 17.4 µM; GI50 (SK-MEL-28 melanoma): 5.96 µM; TGI (SK-MEL-28 melanoma): 18.4 µM; GI50 (HCC-2998 colon): 3.49 µM; TGI (HCC-2998 colon): 14.1 µM; GI50 (MDA-MB-231 breast): 9.03 µM; TGI (MDA-MB-231 breast): 21.3 µM; GI50 (CCRF-CEM leukemia): 2.53 µM; TGI (CCRF-CEM leukemia): 12.6 µM; GI50 (DU-145 prostate): 6.27 µM; TGI (DU-145 prostate): 19.8 µM
